How the values were obtained:
HLA-A*02:01_ds 22-71 [1] = experiment: TSA with fatty acids in 20 mM HEPES pH 7.0; assay type: binding, human; details: 50 mM fatty acid, 20 mM HEPES pH 7.0, protein 0.1 mg/ml
Experimental: (§1) After refolding the protein was concentrated by ultrafiltration and purified by size exclusion chromatography. Fatty acids were dissolved in or diluted with water and neutralized with NaOH to give stock solution of 0.5 M pH 7.
In order to find optimal storage and handling conditions for peptide free recombinant HLA-A*02:01 preparations, different compounds were screened in a thermal shift assay (TSA). […] The additives indicated in table 3 were added or alternatively water was added as a control. The raw data was exported and the analysis of the melting temperature was performed in Microsoft Excel. Protein stability was monitored over a temperature range from 30° C. to 70° C. […] The temperature at which the maximal increase of fluorescence compared to the previous measurement was observed, is defined as melting point in the respective composition.

HLA-A*02:01 ds_84-139 = experiment: TSA with fatty acid and/or GM loading dipeptide; assay type: binding, human; details: fatty acid 50 mM final or GM 10 mM final
Experimental: (§2) In order to find optimal storage and handling conditions for peptide free recombinant HLA-A*02:01 preparations, different compounds were screened in a thermal shift assay (TSA). Measurements were performed in the Applied Biosystems 7500 real time PCR instrument at a protein concentration of 0.1 mg/ml in a buffer of 20 mM Tris pH 8.0, 150 mM NaCl. The additives indicated in table 3 were added or alternatively water was added as a control. The raw data was exported and the analysis of the melting temperature was performed in Microsoft Excel. Protein stability was monitored over a temperature range from 30° C. to 70° C. […] The temperature at which the maximal increase of fluorescence compared to the previous measurement was observed, is defined as melting point in the respective composition.
(§3) Reference is made to FIGS. 5 to 7.

HLA-A*02:01_ds_22-71 = experiment: TSA with fatty acid and/or GM loading dipeptide; assay type: binding, human; details: fatty acid 50 mM final or GM 10 mM final
Experimental: as §2, §3

HLA-A*02:01_ds 22-71 [2] = details: 0.1 mg/ml protein, 20 mM Tris pH 8.0, 150 mM NaCl; for protein stability (melting point) in thermal shift assay: sodium butyrate 50 mM, GM dipeptide 10 mM, water as control
Experimental: as §1, §2

HLA-A*0201 ds 22-71 = experiment: TSA-screen with 40 different buffer conditions (different pH); assay type: binding, human; details: valeric acid 50 mM
Experimental: In a parallel TSA-screen with 40 different buffer conditions (MES pH between 5.8 to 7.2; BisTris pH between 5.8 to 7.2; MOPS pH between 6.5 to 7.9; HEPES pH 6.8 to 8.2; and Tris pH between 7.6 to 9.0), a clear link between pH conditions and stability of recombinant HLA was detected. In this experiment, a solution of 0.1 mg/ml HLA-A*0201 ds 22-71 in 20 mM HEPES pH 7.0 was supplemented with 0.1 volume of 1 M stock solution of the respective buffer. […] This pH range was also found to be optimal for peptide loaded HLA molecules. In order to test whether HLA is stabilized in different pH conditions by the fatty acids, a TSA-screen with the same 40 different buffer conditions was performed as described above. […] Accordingly, the stabilizing effect of the fatty acid on the HLA molecule was observed under different pH conditions.

Row | SMILES | stabilizing effect on the HLA molecule (melting point), branched or unsaturated versus linear saturated fatty acids (HLA-A*02:01_ds 22-71 [1]) | stabilization of the HLA protein, single additive (HLA-A*02:01 ds_84-139) | stabilization of the HLA protein, single additive (HLA-A*02:01_ds_22-71) | protein stability (melting point) in thermal shift assay (HLA-A*02:01_ds 22-71 [2]) | stabilizing effect compared to the dipeptide glycine-methionine (HLA-A*02:01_ds 22-71 [2]; sodium butyrate 50 mM vs GM 10 mM) | stabilizing effect compared to tests without the fatty acid (HLA-A*0201 ds 22-71; 40 buffer conditions, MES, BisTris, MOPS, HEPES, Tris, pH 5.8 to 9.0, 100 mM buffer) | stabilizing effect in the pH range of 6 to 7.2 (HLA-A*0201 ds 22-71; pH 6 to 7.2)
1 | CC(C)CCC(=O)O [4-methyl-valeric acid, 4-methyl-pentanoic acid] | showed a stabilizing effect on the HLA molecule | – | – | – | – | – | –
2 | CSCC[C@H](N)C(=O)O.NCC(=O)O [glycine-methionine, reference compound] | – | Stabilization of the HLA proteins was observed | Stabilization of the HLA proteins was observed | marked increase in protein stability | – | – | –
3 | CCCCCC(=O)O [hexanoic acid] | – | Stabilization of the HLA proteins was observed | Stabilization of the HLA proteins was observed | – | – | – | –
4 | CCCC(=O)[O-].[Na+] [sodium butyrate, Sodium butyrate] | – | Stabilization of the HLA proteins was observed | Stabilization of the HLA proteins was observed | marked increase in protein stability | increased stabilizing effect | – | –
5 | CCCCC(=O)O [valeric acid, Pentanoic acid] | – | Stabilization of the HLA proteins was observed | Stabilization of the HLA proteins was observed | – | – | increased in all pH conditions tested | particularly increased
